Values joined by “and” are separate entries in the source; they are usually repeats but may differ in a detail not shown here. Identical values can stand only once.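 Briefly, cells in 96-well plates were exposed to five compound concentrations for 48 h, and endpoints were estimated by linear interpolation. GI50: concentration for 50% inhibition of growth. At the TGI there is no net growth.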
Legend:
Experiment in all cases: NCI tumour cell line growth inhibition, 48 h
T-47D breast = system: T-47D breast
HOP-92 NSCLC = system: HOP-92 NSCLC
SK-MEL-2 melanoma = system: SK-MEL-2 melanoma
HS 578T breast = system: HS 578T breast
OVCAR-3 ovarian = system: OVCAR-3 ovarian
OVCAR-4 ovarian = system: OVCAR-4 ovarian
NCI-H23 lung = system: NCI-H23 lung
RPMI-8226 leukemia = system: RPMI-8226 leukemia
SF-268 CNS = system: SF-268 CNS
CCRF-CEM leukemia = system: CCRF-CEM leukemia

Structure (SMILES)	GI50 (T-47D breast)	TGI (T-47D breast)	GI50 (HOP-92 NSCLC)	TGI (HOP-92 NSCLC)	GI50 (SK-MEL-2 melanoma)	TGI (SK-MEL-2 melanoma)	GI50 (HS 578T breast)	TGI (HS 578T breast)	GI50 (OVCAR-3 ovarian)	TGI (OVCAR-3 ovarian)	GI50 (OVCAR-4 ovarian)	TGI (OVCAR-4 ovarian)	GI50 (NCI-H23 lung)	TGI (NCI-H23 lung)	GI50 (RPMI-8226 leukemia)	TGI (RPMI-8226 leukemia)	GI50 (SF-268 CNS)	TGI (SF-268 CNS)	GI50 (CCRF-CEM leukemia)	TGI (CCRF-CEM leukemia)
CCc1cccc(C)c1NC(=O)c1sc2nc3c(cc2c1N)CCCCC3	4.65 µM	> 100 µM	13.3 µM	60.3 µM	3.27 µM	> 100 µM	4.87 µM	> 100 µM	2.56 µM	9.02 µM	8.37 µM	> 100 µM	4.67 µM	> 100 µM	4.3 µM	25 µM	7.69 µM	> 100 µM	2.68 µM	> 100 µM
COc1cc(-c2cc3ncccc3c3nc(N)c4cccnc4c23)cc(OC)c1OC	0.824 µM	32 µM	9.17 µM	> 100 µM	0.533 µM	8.86 µM	0.692 µM	> 100 µM	0.229 µM	2.68 µM	3.16 µM	> 100 µM	1.28 µM	51.2 µM	0.556 µM	23.9 µM	0.752 µM	> 100 µM	0.481 µM	30.2 µM
O=C(CO[N+](=O)[O-])Nc1ccc(C(=O)/C=C/c2ccc(Cl)cc2)cc1	3.26 µM	14.9 µM	2.95 µM	15.2 µM	9.69 µM	23.3 µM	2.85 µM	14.2 µM	2.22 µM	6.55 µM	4.06 µM	21 µM	4.55 µM	22.1 µM	1.41 µM	8.36 µM	2.62 µM	11.7 µM	2.73 µM	16.5 µM
CCN(Cc1cccc(F)c1)c1ccc(CO)c(Cl)c1	0.148 µM	0.662 µM	1.86 µM	20.8 µM	4.54 µM	25.1 µM	19.5 µM	74.4 µM	0.711 µM	6.71 µM	0.318 µM	15.1 µM	10.8 µM	74.4 µM	5.98 µM	> 56 µM	29.9 µM	> 82.8 µM	24 µM	> 80.7 µM
FC(F)(F)c1nc2nc(Cl)c(Cl)nc2n1CCCN1CCOCC1	–	> 100 µM	–	> 100 µM	–	> 100 µM	–	> 100 µM	–	> 100 µM	–	> 100 µM	–	> 100 µM	–	> 100 µM	–	> 100 µM	–	> 100 µM
COc1ccc(S(=O)(=O)N2CC(C)(C)CN(S(=O)(=O)c3ccc(OC)cc3)C2C(=O)NO)cc1	> 20 µM	> 20 µM	8.14 µM	> 20 µM	> 20 µM	> 20 µM	> 6.77 µM	> 20 µM	19.8 µM	> 20 µM	> 20 µM	> 20 µM	> 20 µM	> 20 µM	6.37 µM	> 20 µM	> 20 µM	> 20 µM	1.29 µM	> 16.6 µM
CN[C@H]1C=C[C@@H]2/C=C(C)/C=C/[C@@H](C)[C@H]([C@H](C)[C@H](O)[C@@H](C)NC(C)=O)OC(=O)/C=C/C=C(C)\C=C\[C@]2(C)C1	< 0.001 µM and 0.0049 µM	> 49 µM	< 0.001 µM and 0.0049 µM	0.0661 µM and 0.0222 µM	–	27.9 µM	0.0597 µM and 0.0123 µM	> 49 µM	–	46.7 µM	7.12 µM	> 49 µM	0.0687 µM and 0.0376 µM	> 49 µM	0.0049 µM	33.2 µM	0.0821 µM and 0.042 µM	> 49 µM	6.16 µM	> 49 µM
O=C(CC(c1ccccc1)c1c(O)c2ccccc2oc1=O)c1ccccc1 (centres undefined)	–	> 100 µM	–	> 86.5 µM	–	> 100 µM	–	> 100 µM	–	> 81.9 µM	–	> 100 µM	–	> 100 µM	–	> 100 µM	–	> 100 µM	–	> 100 µM
CN(C)CCCOc1ccc(-c2ccc3ncc4c(c3c2)n(C2CCOCC2)c(=O)n4C)cn1	0.212 µM	2.92 µM	0.218 µM	1.61 µM	1.47 µM	6.21 µM	0.902 µM	10.1 µM	1.34 µM	10.3 µM	1.34 µM	11.3 µM	2.53 µM	22.1 µM	1.1 µM	8.63 µM	2.04 µM	29.5 µM	3.02 µM	22.7 µM
Nc1ccccc1C(=O)CC1OC(=O)c2ccccc21 (centres undefined)	–	> 100 µM	–	> 100 µM	–	88 µM	–	> 100 µM	–	> 100 µM	–	> 100 µM	–	–	–	> 100 µM	–	> 100 µM	–	–
CC[N+](CC)=c1sc2c(s1)C(c1ccc(Cl)cc1)Oc1ccc(Cl)cc1-2 (centres undefined)	1.67 µM	6.39 µM	2.4 µM	5.66 µM	1.03 µM	2.81 µM	1.43 µM	5.59 µM	1.91 µM	3.95 µM	3.03 µM	12.7 µM	1.07 µM	6.79 µM	1.99 µM	7.5 µM	0.461 µM	2.08 µM	0.665 µM	6.35 µM
S=C(Nc1ccc(Br)cc1)Nc1ccc(Br)cc1	2.99 µM	> 100 µM	2.72 µM	9.13 µM	7.93 µM	> 100 µM	85 µM	> 100 µM	3.58 µM	> 100 µM	7.51 µM	> 100 µM	3.47 µM	> 100 µM	4.05 µM	> 100 µM	67.8 µM	> 100 µM	6.19 µM	> 100 µM
CCCC(=O)NC1=C(Cl)C(=O)c2ccccc2C1=O	–	8.02 µM	–	3.22 µM	–	6.07 µM	–	> 39.9 µM	–	8.01 µM	–	17.1 µM	–	10.3 µM	–	6.19 µM	–	30.2 µM	–	> 100 µM
Cc1ccc(S(=O)(=O)NC(=O)C2C(=O)CC3(CCCCC3)CC2=O)cc1	–	> 100 µM	–	45.6 µM	–	–	–	> 100 µM	–	92.2 µM	–	> 100 µM	–	> 100 µM	–	51.5 µM	–	> 100 µM	–	69.8 µM
C=C(C)C(=O)O[C@H]1C[C@@]23O[C@@H]2CCC(=C[C@H]2OC(=O)C(=C)[C@H]12)COC3O (some centres undefined)	–	> 100 µM	–	53.6 µM	–	> 100 µM	–	> 100 µM	–	> 100 µM	–	> 100 µM	–	> 100 µM	–	63 µM	–	> 100 µM	–	50.1 µM
[Cl][Hg][Cl]	5.18 µM	30.2 µM	17.3 µM	32.7 µM	16.2 µM	34.5 µM	22.8 µM	57.4 µM	15.9 µM	32.1 µM	16.9 µM	35 µM	17.2 µM	40.5 µM	20 µM	> 60.3 µM	18.1 µM	46.9 µM	1.83 µM	7.38 µM
O=C(CP(=O)(O)O)NC(CC(=O)OCc1ccccc1)C(=O)OCc1ccccc1 (centres undefined)	–	> 100 µM	–	> 100 µM	–	> 100 µM	–	> 100 µM	–	> 100 µM	–	> 100 µM	–	> 100 µM	–	> 100 µM	–	> 100 µM	–	> 100 µM
COC(=O)CCc1c[nH]c2ccc(N(CCCl)CCCl)cc12	1.16 µM	16.4 µM	2.24 µM	28.6 µM	9.71 µM	59 µM	15.1 µM	50.1 µM	8.05 µM	49.6 µM	7.71 µM	52.2 µM	1.25 µM	39.7 µM	3.05 µM	> 55.9 µM	1.25 µM	30 µM	0.6 µM	> 28.6 µM
Cc1nn(-c2nc3ccccc3[nH]2)c(N)c1-c1ccc(Cl)cc1	3.42 µM	> 100 µM	3.28 µM	75.4 µM	5.88 µM	> 100 µM	9.24 µM	> 100 µM	7.66 µM	> 100 µM	5.1 µM	> 100 µM	5.23 µM	> 100 µM	4.37 µM	> 100 µM	5.65 µM	> 100 µM	2.92 µM	> 100 µM
CC(=O)OCC1OC(n2c(-c3ccc(Cl)cc3)ccc(C#N)c2=S)C(OC(C)=O)C(OC(C)=O)C1OC(C)=O (centres undefined)	–	> 100 µM	3.96 µM and 22.2 µM	18.8 µM and > 100 µM	16 µM and 87 µM	45.6 µM and > 100 µM	5.34 µM and 23.8 µM	67.3 µM and > 100 µM	98.7 µM and 48.1 µM	> 100 µM	> 100 µM and 19.9 µM	> 100 µM and 93.3 µM	29.3 µM and > 100 µM	> 100 µM	–	> 100 µM	5.5 µM and 34.9 µM	> 100 µM	–	> 100 µM
Nc1ccc(C2=NN(c3ccccc3)C(c3ccc(Cl)cc3)C2)cc1 (centres undefined)	2.06 µM	4.48 µM	2.61 µM	17.3 µM	–	–	5.7 µM	50.5 µM	2.59 µM	6.88 µM	4.84 µM	45.5 µM	2.12 µM	5.09 µM	1.86 µM	4.88 µM	4.22 µM	19.8 µM	2.3 µM	6.17 µM
COc1ccc(-c2cc(=O)c3ccc(C)nc3[nH]2)cc1	–	> 100 µM	–	> 100 µM	–	> 100 µM	–	> 100 µM	> 100 µM	> 100 µM	–	> 100 µM	–	> 100 µM	–	> 100 µM	–	> 100 µM	–	> 100 µM
OCc1ccc(-c2ccc(-c3ccc(CO)o3)[se]2)o1	15.7 µM	> 100 µM	48.2 µM	> 100 µM	> 84.5 µM	> 100 µM	> 79 µM	> 100 µM	31.3 µM	> 100 µM	35.4 µM	> 100 µM	> 100 µM	> 100 µM	33.7 µM	> 100 µM	> 100 µM	> 100 µM	35.5 µM	> 100 µM
COc1ccc2c(c1)C(=O)c1c-2n(CCCN=[N+]=[N-])c(=O)c2cc(OC)c(OC)cc12	> 100 µM	> 100 µM	9.13 µM	44.6 µM	> 100 µM	> 100 µM	70 µM	> 100 µM	49.2 µM	> 100 µM	> 100 µM	> 100 µM	–	–	0.868 µM	5.58 µM	79.4 µM	> 100 µM	4.01 µM	16.4 µM
CC(C)=CCc1c(OC(=O)c2c(C)cc(O)cc2O)cc(CO)c(CO)c1O	–	23.8 µM	–	52.3 µM	–	59.5 µM	–	54.8 µM	–	–	–	38.2 µM	–	33 µM	–	–	–	85 µM	–	–
Cn1cc(C2=C(c3cn(CCCCN)c4ccccc34)C(=O)NC2=O)c2ccccc21	> 25 µM	> 25 µM	–	–	> 25 µM	> 25 µM	> 25 µM	> 25 µM	> 25 µM	> 25 µM	> 25 µM	> 25 µM	> 25 µM	> 25 µM	> 25 µM	> 25 µM	> 25 µM	> 25 µM	> 25 µM	> 25 µM
COc1cccc(-c2nc3sccn3c2-c2ccnc(NCCCNS(=O)(=O)c3cccc(F)c3)c2)c1	1.24 µM	4.93 µM	1.52 µM	> 100 µM	2.18 µM	5.44 µM	3 µM	> 100 µM	3.06 µM	> 100 µM	–	–	2.12 µM	7.29 µM	1.29 µM	4.56 µM	3.26 µM	> 100 µM	2.26 µM	> 100 µM
Oc1[nH]c2ccccc2c1N=Nc1ccccn1	–	> 100 µM	–	–	–	> 100 µM	–	> 100 µM	–	> 100 µM	–	45.6 µM	–	> 100 µM	–	> 100 µM	–	> 100 µM	–	58.8 µM
Cc1cc(S(=O)(=O)Nc2nc3cscc3c(=O)n2Cc2ccccc2)c(S)cc1Cl	4.53 µM	90.8 µM	> 100 µM	> 100 µM	–	–	65.6 µM	> 100 µM	32.2 µM	> 100 µM	> 100 µM	> 100 µM	51.5 µM	> 100 µM	26.7 µM	> 100 µM	31 µM	> 100 µM	14 µM	> 100 µM
